Test results reported in PMC5392334, “Discovery and characterization of a novel irreversible EGFR mutants selective and potent kinase inhibitor CHMFL-EGFR-26 with a distinct binding mode” (Oncotarget, 2017).

Key:
AKT3 = target: T1, AKT3 (Homo sapiens, UniProt Q9Y243); assay: KinomeScan; format: binding; settings: read-out: % control
T1 construct: purchased DiscoveRx KINOMEscan

CDK9 = target: T2, CDK9 (Homo sapiens, UniProt P50750); assay: KinomeScan; format: binding; settings: read-out: % control
T2 construct: purchased DiscoveRx KINOMEscan

CHEK2 = target: T3, CHEK2 (Homo sapiens, UniProt O96017); assay: KinomeScan; format: binding; settings: read-out: % control
T3 construct: purchased DiscoveRx KINOMEscan

CSNK1G2 = target: T4, CSNK1G2 (Homo sapiens, UniProt P78368); assay: KinomeScan; format: binding; settings: read-out: % control
T4 construct: purchased DiscoveRx KINOMEscan

FLT3-autoinhibited = target: T5, FLT3-autoinhibited (Homo sapiens, UniProt P36888); assay: KinomeScan; format: binding; settings: read-out: % control
T5 construct: purchased DiscoveRx KINOMEscan

HASPIN = target: T6, HASPIN (Homo sapiens, UniProt Q8TF76); assay: KinomeScan; format: binding; settings: read-out: % control
T6 construct: purchased DiscoveRx KINOMEscan

IKK-alpha = target: T7, IKK-alpha (Homo sapiens, UniProt O15111); assay: KinomeScan; format: binding; settings: read-out: % control
T7 construct: purchased DiscoveRx KINOMEscan

KIT(L576P) = target: T8, KIT(L576P) (Homo sapiens, UniProt P10721, L576P); assay: KinomeScan; format: binding; settings: read-out: % control
T8 construct: purchased DiscoveRx KINOMEscan

MAP4K2 = target: T9, MAP4K2 (Homo sapiens, UniProt Q12851); assay: KinomeScan; format: binding; settings: read-out: % control
T9 construct: purchased DiscoveRx KINOMEscan

MAPKAPK5 = target: T10, MAPKAPK5 (Homo sapiens, UniProt Q8IW41); assay: KinomeScan; format: binding; settings: read-out: % control
T10 construct: purchased DiscoveRx KINOMEscan

MINK = target: T11, MINK (Homo sapiens, UniProt Q8N4C8); assay: KinomeScan; format: binding; settings: read-out: % control
T11 construct: purchased DiscoveRx KINOMEscan

MKNK1 = target: T12, MKNK1 (Homo sapiens, UniProt Q9BUB5); assay: KinomeScan; format: binding; settings: read-out: % control
T12 construct: purchased DiscoveRx KINOMEscan

NEK11 = target: T13, NEK11 (Homo sapiens, UniProt Q8NG66); assay: KinomeScan; format: binding; settings: read-out: % control
T13 construct: purchased DiscoveRx KINOMEscan

NEK4 = target: T14, NEK4 (Homo sapiens, UniProt P51957); assay: KinomeScan; format: binding; settings: read-out: % control
T14 construct: purchased DiscoveRx KINOMEscan

PAK3 = target: T15, PAK3 (Homo sapiens, UniProt O75914); assay: KinomeScan; format: binding; settings: read-out: % control
T15 construct: purchased DiscoveRx KINOMEscan

PIM3 = target: T16, PIM3 (Homo sapiens, UniProt Q86V86); assay: KinomeScan; format: binding; settings: read-out: % control
T16 construct: purchased DiscoveRx KINOMEscan

RIPK1 = target: T17, RIPK1 (Homo sapiens, UniProt Q13546); assay: KinomeScan; format: binding; settings: read-out: % control
T17 construct: purchased DiscoveRx KINOMEscan

[1] = target: T18, RSK1(Kin.Dom.2-C-terminal) (Homo sapiens, UniProt Q15418); assay: KinomeScan; format: binding; settings: read-out: % control
T18 construct: RSK1(Kin.Dom.2-C-terminal); purchased DiscoveRx KINOMEscan

SGK3 = target: T19, SGK3 (Homo sapiens, UniProt Q96BR1); assay: KinomeScan; format: binding; settings: read-out: % control
T19 construct: purchased DiscoveRx KINOMEscan

WNK1 = target: T20, WNK1 (Homo sapiens, UniProt Q9H4A3); assay: KinomeScan; format: binding; settings: read-out: % control
T20 construct: purchased DiscoveRx KINOMEscan

WNK3 = target: T21, WNK3 (Homo sapiens, UniProt Q9BYP7); assay: KinomeScan; format: binding; settings: read-out: % control
T21 construct: purchased DiscoveRx KINOMEscan

[2] = tested on: phosphorylation of STAT3 in HCC827 cells; assay: Signaling pathway examination (immunoblotting); format: cell-based; settings: Homo sapiens, 4 hours
Source text: We next examined the effects of CHMFL-EGFR-26 on EGFR mediated signaling pathways in NSCLC cell lines with different EGFR mutants. […] As expected, in the EGFR wt expressing NCSCL cell lines A549 and H1355, only autophosphorylation of EGFR was affected and none of the downstream mediators was inhibited.
Cells were then collected and lysed. Phospho-EGF Receptor, Phospho-EGF Receptor (Tyr1068), Stat3, Phospho-Stat3 (Tyr705), AKT, Phospho-AKT (Ser473), Phospho-AKT (Thr308), p44/42 MAPK (Erk1/2), Phospho-p44/42 MAPK (Erk1/2) (Thr202/ Tyr204), p70 S6 Kinase, Phospho-p70 S6 Kinase (Thr389), eIF4E, Phospho-eIF4E (Ser209), 4E-BP1, Phospho-4E-BP1 (Thr37/46) antibody (Cell Signaling Technology) were used for immunoblotting.

PC9 tumor xenografts = assay: PC9 cell inoculated xenograft mouse model; format: in vivo, mice; settings: 21-day treatment
Description: Figure 5 Anti-tumor efficacy of CHMFL-EGFR-26 in PC9 cell inoculated xenograft mouse mode Female nu/nu mice bearing established PC9 tumor xenografts were treated with CHMFL-EGFR-26 at 25.0 and 50.0 mg/kg/d, or vehicle. Daily oral administration was initiated when PC9 tumors had reached a size of 200 to 400 mm^3. Each group contained 7 or 8 animals. Data, mean ± SEM. A. Body weight and B. Tumor size measurements from PC9 xenograft mice after CHMFL-EGFR-26 administration. Initial body weight and tumor size were set as 100%. C. Representative photographs of tumors in each group after 25.0 or 50.0 mg/kg/d CHMFL-EGFR-26 or vehicle treatment. D. Comparison of the final tumor weight in each group after 21-day treatment period. Numbers in columns indicate the mean tumor weight in each group. E. Representative micrographs of hematoxylin and eosin (HE), Ki-67, and TUNEL staining of tumor tissues with CHMFL-EGFR-26 treatment compared to the vehicle-treated group. […]
Five-week old female nu/nu mice were purchased from the Shanghai Experimental Center, Chinese Science Academy (Shanghai, China). […] Body weight and tumor growth was measured daily after CHMFL-EGFR-26 treatment. Tumor volumes were calculated as follows: tumor volume (mm^3)= [(W^2 × L)/2] in which width (W) is defined as the smaller of the two measurements and length (L) is defined as the larger of the two measurements.

T6 sequence (Q8TF76 whole entry): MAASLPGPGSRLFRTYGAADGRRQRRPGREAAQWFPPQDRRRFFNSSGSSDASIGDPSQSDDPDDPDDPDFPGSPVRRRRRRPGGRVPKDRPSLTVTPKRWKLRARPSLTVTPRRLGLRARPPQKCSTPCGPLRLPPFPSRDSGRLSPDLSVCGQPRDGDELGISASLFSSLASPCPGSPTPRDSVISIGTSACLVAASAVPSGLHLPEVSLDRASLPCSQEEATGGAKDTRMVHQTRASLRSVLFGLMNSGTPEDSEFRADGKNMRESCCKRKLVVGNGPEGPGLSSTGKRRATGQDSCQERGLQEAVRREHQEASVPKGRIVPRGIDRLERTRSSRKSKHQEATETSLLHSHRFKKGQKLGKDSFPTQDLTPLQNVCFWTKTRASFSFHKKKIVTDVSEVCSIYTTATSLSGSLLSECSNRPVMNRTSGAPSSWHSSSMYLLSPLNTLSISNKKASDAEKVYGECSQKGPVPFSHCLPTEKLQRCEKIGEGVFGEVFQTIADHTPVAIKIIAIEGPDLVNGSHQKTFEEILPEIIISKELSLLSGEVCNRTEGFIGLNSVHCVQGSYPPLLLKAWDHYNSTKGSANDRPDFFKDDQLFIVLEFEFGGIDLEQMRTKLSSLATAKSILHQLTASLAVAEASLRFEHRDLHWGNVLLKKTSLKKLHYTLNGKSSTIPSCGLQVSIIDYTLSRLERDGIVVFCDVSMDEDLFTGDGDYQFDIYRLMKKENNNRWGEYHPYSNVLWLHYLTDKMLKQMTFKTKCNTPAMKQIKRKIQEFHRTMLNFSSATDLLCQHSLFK
T9 sequence (Q12851 whole entry): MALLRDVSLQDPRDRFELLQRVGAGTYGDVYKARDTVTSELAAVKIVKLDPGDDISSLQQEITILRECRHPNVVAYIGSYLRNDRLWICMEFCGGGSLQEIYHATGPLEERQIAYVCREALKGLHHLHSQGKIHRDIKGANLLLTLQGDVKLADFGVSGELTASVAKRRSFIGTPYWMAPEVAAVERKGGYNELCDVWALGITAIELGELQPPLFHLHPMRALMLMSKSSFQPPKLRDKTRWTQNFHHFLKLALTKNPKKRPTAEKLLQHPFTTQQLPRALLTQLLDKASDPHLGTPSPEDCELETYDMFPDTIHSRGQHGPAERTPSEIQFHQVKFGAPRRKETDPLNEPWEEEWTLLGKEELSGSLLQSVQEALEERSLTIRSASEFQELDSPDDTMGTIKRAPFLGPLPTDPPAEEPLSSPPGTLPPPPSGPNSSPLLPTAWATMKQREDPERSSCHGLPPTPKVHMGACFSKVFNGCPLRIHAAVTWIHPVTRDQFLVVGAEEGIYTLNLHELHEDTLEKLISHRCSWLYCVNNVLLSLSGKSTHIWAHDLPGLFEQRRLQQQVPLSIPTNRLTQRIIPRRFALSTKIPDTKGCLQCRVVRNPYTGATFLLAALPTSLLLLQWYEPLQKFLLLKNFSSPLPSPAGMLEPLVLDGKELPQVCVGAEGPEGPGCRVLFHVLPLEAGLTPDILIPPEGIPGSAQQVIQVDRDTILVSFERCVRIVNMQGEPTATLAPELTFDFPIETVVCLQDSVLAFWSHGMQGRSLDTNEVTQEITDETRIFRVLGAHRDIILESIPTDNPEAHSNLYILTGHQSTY
T20 sequence (Q9H4A3 whole entry): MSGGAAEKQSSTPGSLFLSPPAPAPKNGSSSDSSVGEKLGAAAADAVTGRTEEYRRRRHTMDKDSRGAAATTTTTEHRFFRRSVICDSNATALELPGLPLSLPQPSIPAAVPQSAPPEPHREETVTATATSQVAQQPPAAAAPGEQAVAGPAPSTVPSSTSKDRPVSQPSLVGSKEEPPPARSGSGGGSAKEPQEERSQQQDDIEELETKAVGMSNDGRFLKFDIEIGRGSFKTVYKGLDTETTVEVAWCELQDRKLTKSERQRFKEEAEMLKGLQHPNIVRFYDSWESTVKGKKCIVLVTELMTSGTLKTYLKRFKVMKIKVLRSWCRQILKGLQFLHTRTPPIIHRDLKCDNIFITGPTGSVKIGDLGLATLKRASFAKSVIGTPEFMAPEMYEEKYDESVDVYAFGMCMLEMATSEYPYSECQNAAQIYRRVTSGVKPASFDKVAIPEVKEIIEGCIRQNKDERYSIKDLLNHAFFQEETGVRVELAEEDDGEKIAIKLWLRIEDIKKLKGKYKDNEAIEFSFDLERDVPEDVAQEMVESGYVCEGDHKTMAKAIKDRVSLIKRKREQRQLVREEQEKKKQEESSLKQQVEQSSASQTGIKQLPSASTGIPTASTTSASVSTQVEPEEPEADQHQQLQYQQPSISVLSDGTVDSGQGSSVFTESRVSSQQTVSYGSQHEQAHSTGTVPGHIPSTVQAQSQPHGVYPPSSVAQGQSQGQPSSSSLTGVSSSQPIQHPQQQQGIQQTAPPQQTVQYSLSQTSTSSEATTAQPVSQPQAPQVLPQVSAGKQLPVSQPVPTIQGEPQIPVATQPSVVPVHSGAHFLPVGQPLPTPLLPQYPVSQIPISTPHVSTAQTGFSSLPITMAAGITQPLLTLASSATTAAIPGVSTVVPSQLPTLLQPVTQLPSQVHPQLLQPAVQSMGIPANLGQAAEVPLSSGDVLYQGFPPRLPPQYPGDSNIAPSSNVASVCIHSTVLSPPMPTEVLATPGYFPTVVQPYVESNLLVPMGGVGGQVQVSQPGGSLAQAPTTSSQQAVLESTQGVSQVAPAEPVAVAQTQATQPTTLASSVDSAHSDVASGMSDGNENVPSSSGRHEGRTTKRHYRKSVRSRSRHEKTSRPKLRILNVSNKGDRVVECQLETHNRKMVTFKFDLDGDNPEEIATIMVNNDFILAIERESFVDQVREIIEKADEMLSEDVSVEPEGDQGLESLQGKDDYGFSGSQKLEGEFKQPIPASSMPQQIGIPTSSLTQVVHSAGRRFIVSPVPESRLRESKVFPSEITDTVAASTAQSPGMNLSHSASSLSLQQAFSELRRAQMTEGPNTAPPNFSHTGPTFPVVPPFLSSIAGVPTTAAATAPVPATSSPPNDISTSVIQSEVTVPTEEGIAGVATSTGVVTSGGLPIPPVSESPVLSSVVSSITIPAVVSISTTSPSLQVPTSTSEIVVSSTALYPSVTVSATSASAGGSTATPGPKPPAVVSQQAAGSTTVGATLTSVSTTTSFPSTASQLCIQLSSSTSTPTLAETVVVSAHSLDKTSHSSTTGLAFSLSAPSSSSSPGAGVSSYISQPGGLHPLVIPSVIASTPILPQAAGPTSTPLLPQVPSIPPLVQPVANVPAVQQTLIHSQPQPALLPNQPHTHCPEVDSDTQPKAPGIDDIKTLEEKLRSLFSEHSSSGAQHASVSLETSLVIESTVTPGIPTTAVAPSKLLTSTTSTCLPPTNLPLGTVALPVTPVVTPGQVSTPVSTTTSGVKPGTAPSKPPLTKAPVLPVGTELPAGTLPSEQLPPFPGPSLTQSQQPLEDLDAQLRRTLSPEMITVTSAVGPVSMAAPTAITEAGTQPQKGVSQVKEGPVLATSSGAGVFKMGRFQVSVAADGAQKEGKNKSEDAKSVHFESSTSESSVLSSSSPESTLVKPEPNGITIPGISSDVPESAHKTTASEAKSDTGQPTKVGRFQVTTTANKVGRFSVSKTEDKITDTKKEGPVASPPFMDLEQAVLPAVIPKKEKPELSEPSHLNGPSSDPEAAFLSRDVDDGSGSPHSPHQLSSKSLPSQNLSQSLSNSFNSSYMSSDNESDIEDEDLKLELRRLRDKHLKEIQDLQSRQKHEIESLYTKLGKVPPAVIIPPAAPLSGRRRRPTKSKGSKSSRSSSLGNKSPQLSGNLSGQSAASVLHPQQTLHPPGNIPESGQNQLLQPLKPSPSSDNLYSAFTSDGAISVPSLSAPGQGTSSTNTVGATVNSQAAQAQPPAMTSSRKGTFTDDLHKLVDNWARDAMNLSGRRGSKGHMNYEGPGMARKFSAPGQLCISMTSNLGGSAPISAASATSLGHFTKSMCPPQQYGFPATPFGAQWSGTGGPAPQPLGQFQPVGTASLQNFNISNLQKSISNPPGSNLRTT
T2 sequence (P50750 whole entry): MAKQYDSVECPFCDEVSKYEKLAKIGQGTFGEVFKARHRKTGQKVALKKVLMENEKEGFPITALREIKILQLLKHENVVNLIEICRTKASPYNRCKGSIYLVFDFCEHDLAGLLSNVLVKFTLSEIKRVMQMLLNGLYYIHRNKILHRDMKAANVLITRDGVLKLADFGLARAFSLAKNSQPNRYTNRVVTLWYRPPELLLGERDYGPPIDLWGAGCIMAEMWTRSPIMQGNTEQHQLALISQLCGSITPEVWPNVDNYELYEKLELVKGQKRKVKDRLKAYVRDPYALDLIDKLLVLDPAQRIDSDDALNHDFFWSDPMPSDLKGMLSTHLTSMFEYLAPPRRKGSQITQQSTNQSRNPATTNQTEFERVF
T18 sequence (Q15418 392-735 limits assumed): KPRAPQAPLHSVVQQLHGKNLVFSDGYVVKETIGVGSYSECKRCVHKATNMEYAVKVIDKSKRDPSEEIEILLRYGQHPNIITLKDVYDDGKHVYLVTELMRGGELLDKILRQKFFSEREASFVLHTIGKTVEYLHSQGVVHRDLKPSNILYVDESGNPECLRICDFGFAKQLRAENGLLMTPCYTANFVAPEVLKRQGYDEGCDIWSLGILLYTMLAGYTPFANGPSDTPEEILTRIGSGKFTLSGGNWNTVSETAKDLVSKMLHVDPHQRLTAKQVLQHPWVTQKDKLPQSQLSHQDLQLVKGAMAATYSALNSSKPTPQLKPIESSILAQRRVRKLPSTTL

Structure (SMILES): C=CC(=O)N1CCC[C@@H](n2nc(-c3ccc(OCc4cccc(C)n4)c(Cl)c3)c3c(N)ncnc32)C1 [CHMFL-EGFR-26]
- remaining binding at 1 µM (AKT3): 59%
- remaining binding at 1 µM (CDK9): 90%
- remaining binding at 1 µM (CHEK2): 88%
- remaining binding at 1 µM (CSNK1G2): 100%
- remaining binding at 1 µM (FLT3-autoinhibited): 99%
- remaining binding at 1 µM (HASPIN): 100%
- remaining binding at 1 µM (IKK-alpha): 98%
- remaining binding at 1 µM (KIT(L576P)): 91%
- remaining binding at 1 µM (MAP4K2): 100%
- remaining binding at 1 µM (MAPKAPK5): 100%
- remaining binding at 1 µM (MINK): 29%
- remaining binding at 1 µM (MKNK1): 100%
- remaining binding at 1 µM (NEK11): 100%
- remaining binding at 1 µM (NEK4): 100%
- remaining binding at 1 µM (PAK3): 62%
- remaining binding at 1 µM (PIM3): 100%
- remaining binding at 1 µM (RIPK1): 100%
- remaining binding at 1 µM [1]: 83%
- remaining binding at 1 µM (SGK3): 83%
- remaining binding at 1 µM (WNK1): 100%
- remaining binding at 1 µM (WNK3): 100%
- EC50 [2]: < 0.01 µM
- Tumor weight (final, mean) (PC9 tumor xenografts; 25 mg/kg/d oral): 0.93 g
- Tumor weight (final, mean) (PC9 tumor xenografts; 50 mg/kg/d oral): 0.68 g
